According to PMC5896380, “Selective imaging of cathepsin L in breast cancer by fluorescent activity-based probes” (Chemical Science, 2018):

How the values were obtained:
cathepsin V = biological target: T1, cathepsin V (Homo sapiens, UniProt O60911); test: kobs/I of activity-based probes, cathepsin V; format: biochemical; settings: Fig. 6A; pseudo-first order, probe at least 5-fold excess over cathepsin, 100 μM ACC substrate; pH 5.5, 37 °C; triplicate, SD below 20%
T1 construct: made in house
Procedure: (§1) All kinetic experiments were performed using fMax (Molecular Devices) and CLARIOStar (BMG LABTECH) spectrofluorimeters operating in kinetic mode using 96-well plates. ACC-labeled substrates were screened using 355 nm and 460 nm wavelengths (excitation and emission, respectively). […] The buffer was prepared at room temperature and the enzyme kinetic studies were performed at 37 °C.
(§2) For the kinetic studies, five recombinant human cathepsins (B, L, V, K and S) were expressed and purified and active site titrated using an E64 inhibitor. The kobs/I parameter was measured under pseudo-first order kinetic conditions, as described.[40] The cathepsin of interest was mixed with various concentrations of probe (at least 5-fold excess over cathepsin) and 100 μM ACC-fluorescence substrate. The experiments were repeated at least three times, and the results are presented as an average. The SDs were below 20%.

[1] = test system: cathepsins L and B in MDA-MB-231 cells; test: Cathepsin labeling in MDA-MB-231 cells by SDS-PAGE and western blotting; format: cell-based, human; settings: MDA-MB-231 cells
Procedure: Low passage MDA-MB-231 cells were seeded on 12-well plates (200 000 cells per well per 1 mL of medium) and cultured in Dulbecco’s Modification of Eagle’s Medium (DMEM) supplemented with 10% fetal bovine serum, 2 mM of L-glutamine, 100 units per mL penicillin and 100 μg mL^–1 streptomycin. […] To control for non-specific binding, the cells were preincubated with E64d (25 μM) for 2 hours prior to probe addition. At various time points, the medium was aspirated and the cells were gently washed twice with 1 mL of Dulbecco’s Phosphate-Buffered Saline (DPBS) and then trypsinized, harvested and centrifuged for 10 min (500 × g). The supernatants were removed by aspiration and the pellets washed with 1 mL of DPBS and centrifuged (5 min, 500 × g). The supernatants were again removed and the pellets solubilized in 100 μL 1× SDS/DTT and then boiled for 5 min. Each sample was then cooled to room temperature and sonicated (Branson Sonifier 250, duty cycle: 50, output control: 5, cycles: 5) and then 30 μL was loaded on 4–12% Bis-Tris Plus gels and run for 30 min at 200 V with a SDS-PAGE Standards/Broad Range ladder. Proteins were transferred to a 0.2 μm nitrocellulose membrane for 1 hour at 10 V and then Ponceau staining was used to verify equal loading. Membranes were blocked with 2.5% BSA in Tris-buffered saline/0.1% v/v Tween 20 (TBS-T) for 1 hour at room temperature. Cathepsins L and B were detected by primary goat anti-hCathepsin L (R&D, AF952, 0.2 mg mL^–1, 1 : 2000) and goat anti-hCathepsin B (R&D, AF953, 0.2 mg mL^–1, 1 : 1000) antibodies, respectively, followed by incubation with a secondary antibody (IRDye® 800CW, LI-COR, donkey anti-goat, 1 : 10 000). The membranes were incubated with primary antibodies for 2 hours, and with (fluorescent) secondary antibodies for 30 min (both in TBS-T at room temperature). The fluorescence was read at 700 nm (Cyanine5; excitation 685 nm) and 800 nm (secondary antibody; excitation 785 nm) using an Odyssey fluorescence imaging system (LI-COR). The images were analyzed using Image Studio software.

cathepsin K = biological target: T2, cathepsin K (Homo sapiens, UniProt P43235); test: kobs/I of activity-based probes, cathepsin K; format: biochemical; settings: Fig. 6A; pseudo-first order, probe at least 5-fold excess over cathepsin, 100 μM ACC substrate; pH 5.5, 37 °C; triplicate, SD below 20%
T2 construct: made in house
T2 sequence (P43235 115-329): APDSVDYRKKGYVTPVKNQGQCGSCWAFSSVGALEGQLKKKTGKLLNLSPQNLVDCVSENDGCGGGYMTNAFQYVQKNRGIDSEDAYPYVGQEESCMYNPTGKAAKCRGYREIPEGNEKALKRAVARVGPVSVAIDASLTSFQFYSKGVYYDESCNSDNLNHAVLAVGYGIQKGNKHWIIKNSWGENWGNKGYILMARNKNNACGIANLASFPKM
Procedure: as §1, §2

T1 sequence (O60911 114-334): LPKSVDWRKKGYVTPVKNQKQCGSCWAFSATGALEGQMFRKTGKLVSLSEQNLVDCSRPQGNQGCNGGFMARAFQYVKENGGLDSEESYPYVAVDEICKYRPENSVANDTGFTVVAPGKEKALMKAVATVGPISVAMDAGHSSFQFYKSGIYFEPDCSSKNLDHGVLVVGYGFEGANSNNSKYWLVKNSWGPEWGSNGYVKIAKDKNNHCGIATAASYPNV

kobs/I Cath-V (cathepsin V): 380 M⁻¹ s⁻¹ | kobs/I Cath-K (cathepsin K): < 200 M⁻¹ s⁻¹
Substance: Cy5-6-ahx-His-DThr-Phe(F5)-Cys(Bzl)-AOMK [MP-cL3]
incubation time up to which only cathepsin L is labeled (no labeling of cathepsin B) ([1]; 1 μM probe): up to 8 hours | incubation time after which probe labeling is detectable in cells ([1]; 1 μM probe, 0–18 hours): 1 h | incubation time up to which only cathepsin L is labeled ([1]; 5 μM probe, 2-16 hours): up to two
